Experiments:
[1] = system: PI3 Kinase (p110β/p85α)(h); test: kinase profile, non-radiometric HTRF assay, PI3 kinases; type: biochemical, human; details: at 1 μM
MEK1(h) = molecular target: T1, MEK1(h) (Homo sapiens, UniProt Q02750); test: kinase profile, radiometric assay, MEK1; type: biochemical
T1 construct: purchased Eurofins, Dundee, Scotland
Protocol: (§1) Enzymatic biochemical activities were evaluated in radiometric protein kinase assays (Eurofins, Dundee, Scotland). Kinases are incubated with buffer, substrate and [γ-^33P]-ATP (specific activity approx. 500 cpm/pmol, concentration as required). The reaction is initiated by the addition of the MgATP mix. After incubation for 40 minutes at room temperature, the reaction is stopped by the addition of 3% phosphoric acid solution. 10 μL of the reaction is then spotted onto a P30 filtermat and washed three times for 5 minutes in 75 mM phosphoric acid and once in methanol prior to drying and scintillation counting.
(§2) All compounds are prepared to 50× final assay concentration in 100% DMSO. Positive control wells contain all components of the reaction with 2% DMSO. Blank wells contain all components of the reaction, with a reference inhibitor replacing the compound of interest. Each kinase is assigned a standard assay concentration of ATP within 20 μM of its apparent KM. Compounds were screened at 1 μM in duplicate or tested at 10 concentrations at half log dilution starting from 10 μM in singlicate. Dose response curves were fitted with four parameter logistic curve to obtain IC50 values. The average coefficient of variation (CV) of the conducted assay is 4.4%.

Src(1-530)(h) = molecular target: T2, Src(1-530)(h) (Homo sapiens, UniProt P12931); test: kinase profile, radiometric assay, Src(1-530); type: biochemical
T2 construct: Src(1-530)
T2 sequence (P12931 1-530): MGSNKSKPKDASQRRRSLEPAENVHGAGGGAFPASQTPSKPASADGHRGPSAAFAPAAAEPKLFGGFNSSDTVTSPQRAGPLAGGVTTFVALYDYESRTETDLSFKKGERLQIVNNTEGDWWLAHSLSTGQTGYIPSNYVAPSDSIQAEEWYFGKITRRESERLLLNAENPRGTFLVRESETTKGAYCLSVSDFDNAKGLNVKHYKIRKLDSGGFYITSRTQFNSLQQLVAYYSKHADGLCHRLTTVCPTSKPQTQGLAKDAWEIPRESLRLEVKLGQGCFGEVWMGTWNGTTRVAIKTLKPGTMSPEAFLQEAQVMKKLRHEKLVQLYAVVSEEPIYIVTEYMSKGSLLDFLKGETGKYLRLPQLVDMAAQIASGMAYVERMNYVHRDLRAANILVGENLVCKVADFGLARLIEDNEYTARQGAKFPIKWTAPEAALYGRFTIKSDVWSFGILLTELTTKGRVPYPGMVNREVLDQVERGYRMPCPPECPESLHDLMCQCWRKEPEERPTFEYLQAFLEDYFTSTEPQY
Protocol: as §1, §2

JAK2(h) = molecular target: T3, JAK2(h) (Homo sapiens, UniProt O60674); test: kinase profile, radiometric assay, JAK2; type: biochemical
T3 construct: purchased Eurofins, Dundee, Scotland
Protocol: as §1, §2

CLK4(h) = molecular target: T4, CLK4(h) (Homo sapiens, UniProt Q9HAZ1); test: radiometric protein kinase assay, CLK4; type: biochemical; details: enzyme inhibition, ATP 10 μM
T4 construct: purchased Eurofins, Dundee, Scotland
T4 sequence (Q9HAZ1 whole entry): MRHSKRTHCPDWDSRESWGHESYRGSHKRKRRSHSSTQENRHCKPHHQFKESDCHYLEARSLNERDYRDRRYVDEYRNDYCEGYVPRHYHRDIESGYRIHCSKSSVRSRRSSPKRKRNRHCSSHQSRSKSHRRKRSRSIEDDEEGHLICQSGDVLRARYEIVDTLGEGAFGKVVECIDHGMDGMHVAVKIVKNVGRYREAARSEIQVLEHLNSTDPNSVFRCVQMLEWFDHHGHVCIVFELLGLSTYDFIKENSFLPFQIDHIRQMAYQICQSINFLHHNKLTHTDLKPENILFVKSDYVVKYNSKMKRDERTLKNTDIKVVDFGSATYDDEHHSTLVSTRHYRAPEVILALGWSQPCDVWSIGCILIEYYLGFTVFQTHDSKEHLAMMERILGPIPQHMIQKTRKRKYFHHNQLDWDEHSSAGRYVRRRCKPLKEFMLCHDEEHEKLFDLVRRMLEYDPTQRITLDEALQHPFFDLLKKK
Protocol: as §1, §2

IKKβ(h) = molecular target: T5, IKKβ(h) (Homo sapiens, UniProt O14920); test: kinase profile, radiometric assay, IKKβ; type: biochemical
T5 construct: purchased Eurofins, Dundee, Scotland
T5 sequence (O14920 1-756): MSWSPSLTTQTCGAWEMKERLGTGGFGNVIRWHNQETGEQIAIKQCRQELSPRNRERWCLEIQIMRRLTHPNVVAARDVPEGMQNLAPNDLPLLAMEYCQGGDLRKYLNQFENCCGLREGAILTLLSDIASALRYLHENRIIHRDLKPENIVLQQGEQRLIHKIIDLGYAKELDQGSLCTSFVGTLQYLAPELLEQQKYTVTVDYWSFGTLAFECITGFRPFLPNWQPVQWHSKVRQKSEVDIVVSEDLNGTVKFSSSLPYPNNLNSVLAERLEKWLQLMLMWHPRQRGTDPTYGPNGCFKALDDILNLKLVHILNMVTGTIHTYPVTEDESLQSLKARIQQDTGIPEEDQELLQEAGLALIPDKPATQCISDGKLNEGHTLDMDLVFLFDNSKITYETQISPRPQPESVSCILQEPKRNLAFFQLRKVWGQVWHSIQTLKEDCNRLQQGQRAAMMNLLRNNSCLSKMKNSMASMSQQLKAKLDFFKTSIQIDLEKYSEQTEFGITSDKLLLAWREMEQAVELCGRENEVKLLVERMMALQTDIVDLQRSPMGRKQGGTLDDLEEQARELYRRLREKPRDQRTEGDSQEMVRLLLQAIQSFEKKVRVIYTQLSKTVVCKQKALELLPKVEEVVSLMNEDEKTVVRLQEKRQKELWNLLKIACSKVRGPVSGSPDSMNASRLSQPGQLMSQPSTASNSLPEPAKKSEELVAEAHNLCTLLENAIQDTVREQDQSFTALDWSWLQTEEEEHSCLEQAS
Protocol: as §1, §2

JNK2α2(h) = molecular target: T6, JNK2α2(h) (Homo sapiens, UniProt P45984); test: kinase profile, radiometric assay, JNK2α2; type: biochemical
T6 construct: purchased Eurofins, Dundee, Scotland
T6 sequence (P45984 whole entry): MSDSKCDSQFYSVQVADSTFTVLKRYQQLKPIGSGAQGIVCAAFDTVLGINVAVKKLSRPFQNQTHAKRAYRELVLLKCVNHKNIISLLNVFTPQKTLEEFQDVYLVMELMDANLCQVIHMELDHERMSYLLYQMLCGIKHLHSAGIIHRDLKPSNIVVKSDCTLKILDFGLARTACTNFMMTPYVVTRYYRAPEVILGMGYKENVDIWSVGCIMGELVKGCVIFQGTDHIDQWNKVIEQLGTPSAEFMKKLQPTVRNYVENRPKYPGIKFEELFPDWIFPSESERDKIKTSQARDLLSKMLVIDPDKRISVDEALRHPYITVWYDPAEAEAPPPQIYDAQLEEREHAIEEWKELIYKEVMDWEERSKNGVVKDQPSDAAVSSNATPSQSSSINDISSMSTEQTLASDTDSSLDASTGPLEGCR
Protocol: as §1, §2

ALK(h) = molecular target: T7, ALK(h) (Homo sapiens, UniProt Q9UM73); test: kinase profile, radiometric assay, ALK; type: biochemical
T7 construct: purchased Eurofins, Dundee, Scotland
T7 sequence (Q9UM73 19-1620): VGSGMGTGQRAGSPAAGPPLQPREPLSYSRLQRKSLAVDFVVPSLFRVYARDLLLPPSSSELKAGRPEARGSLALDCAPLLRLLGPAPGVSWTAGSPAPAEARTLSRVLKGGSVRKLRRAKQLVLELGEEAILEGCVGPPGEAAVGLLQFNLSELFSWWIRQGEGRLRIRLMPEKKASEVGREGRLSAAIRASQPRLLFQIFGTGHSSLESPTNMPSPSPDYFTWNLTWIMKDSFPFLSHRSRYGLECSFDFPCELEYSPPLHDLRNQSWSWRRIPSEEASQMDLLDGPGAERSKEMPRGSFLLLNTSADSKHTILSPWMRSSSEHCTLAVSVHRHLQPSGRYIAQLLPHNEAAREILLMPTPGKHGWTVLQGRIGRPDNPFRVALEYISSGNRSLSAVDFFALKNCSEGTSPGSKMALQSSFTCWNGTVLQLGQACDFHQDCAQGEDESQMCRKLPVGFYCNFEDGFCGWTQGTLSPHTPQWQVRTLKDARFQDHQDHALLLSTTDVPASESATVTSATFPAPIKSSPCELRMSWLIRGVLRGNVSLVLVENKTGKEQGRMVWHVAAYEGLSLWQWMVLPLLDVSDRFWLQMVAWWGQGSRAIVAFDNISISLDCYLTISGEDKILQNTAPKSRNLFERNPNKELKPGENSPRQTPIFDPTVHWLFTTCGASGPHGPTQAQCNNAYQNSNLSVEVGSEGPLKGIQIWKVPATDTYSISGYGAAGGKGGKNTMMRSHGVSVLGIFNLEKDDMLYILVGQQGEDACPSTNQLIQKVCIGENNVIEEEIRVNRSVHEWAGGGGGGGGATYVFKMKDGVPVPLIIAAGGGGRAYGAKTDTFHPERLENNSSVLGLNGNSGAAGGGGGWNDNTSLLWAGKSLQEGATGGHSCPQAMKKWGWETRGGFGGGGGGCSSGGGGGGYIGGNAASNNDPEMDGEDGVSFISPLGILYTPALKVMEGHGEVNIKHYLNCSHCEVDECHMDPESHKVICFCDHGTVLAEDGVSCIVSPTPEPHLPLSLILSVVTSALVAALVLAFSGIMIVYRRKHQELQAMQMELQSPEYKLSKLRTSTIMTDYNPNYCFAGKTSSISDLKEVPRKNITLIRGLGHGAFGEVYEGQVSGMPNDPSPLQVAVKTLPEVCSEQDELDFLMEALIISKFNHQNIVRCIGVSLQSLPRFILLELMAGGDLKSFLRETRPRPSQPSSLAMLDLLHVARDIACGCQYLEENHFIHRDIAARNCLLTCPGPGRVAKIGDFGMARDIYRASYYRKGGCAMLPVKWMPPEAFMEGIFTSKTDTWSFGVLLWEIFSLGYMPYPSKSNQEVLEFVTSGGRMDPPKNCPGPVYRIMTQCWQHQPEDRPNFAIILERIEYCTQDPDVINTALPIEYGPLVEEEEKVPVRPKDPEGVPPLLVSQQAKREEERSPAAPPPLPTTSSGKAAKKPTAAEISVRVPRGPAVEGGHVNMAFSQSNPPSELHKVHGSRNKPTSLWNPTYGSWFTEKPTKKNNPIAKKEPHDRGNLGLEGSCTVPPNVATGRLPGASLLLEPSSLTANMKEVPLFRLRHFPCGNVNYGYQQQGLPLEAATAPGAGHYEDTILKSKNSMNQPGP
Protocol: as §1, §2

EGFR(h) = molecular target: T8, EGFR(h) (Homo sapiens, UniProt P00533); test: kinase profile, radiometric assay, EGFR; type: biochemical
T8 construct: purchased Eurofins, Dundee, Scotland
Protocol: as §1, §2

Flt3(h) = molecular target: T9, Flt3(h) (Homo sapiens, UniProt P36888); test: kinase profile, radiometric assay, Flt3; type: biochemical
T9 construct: purchased Eurofins, Dundee, Scotland
T9 sequence (P36888 27-993): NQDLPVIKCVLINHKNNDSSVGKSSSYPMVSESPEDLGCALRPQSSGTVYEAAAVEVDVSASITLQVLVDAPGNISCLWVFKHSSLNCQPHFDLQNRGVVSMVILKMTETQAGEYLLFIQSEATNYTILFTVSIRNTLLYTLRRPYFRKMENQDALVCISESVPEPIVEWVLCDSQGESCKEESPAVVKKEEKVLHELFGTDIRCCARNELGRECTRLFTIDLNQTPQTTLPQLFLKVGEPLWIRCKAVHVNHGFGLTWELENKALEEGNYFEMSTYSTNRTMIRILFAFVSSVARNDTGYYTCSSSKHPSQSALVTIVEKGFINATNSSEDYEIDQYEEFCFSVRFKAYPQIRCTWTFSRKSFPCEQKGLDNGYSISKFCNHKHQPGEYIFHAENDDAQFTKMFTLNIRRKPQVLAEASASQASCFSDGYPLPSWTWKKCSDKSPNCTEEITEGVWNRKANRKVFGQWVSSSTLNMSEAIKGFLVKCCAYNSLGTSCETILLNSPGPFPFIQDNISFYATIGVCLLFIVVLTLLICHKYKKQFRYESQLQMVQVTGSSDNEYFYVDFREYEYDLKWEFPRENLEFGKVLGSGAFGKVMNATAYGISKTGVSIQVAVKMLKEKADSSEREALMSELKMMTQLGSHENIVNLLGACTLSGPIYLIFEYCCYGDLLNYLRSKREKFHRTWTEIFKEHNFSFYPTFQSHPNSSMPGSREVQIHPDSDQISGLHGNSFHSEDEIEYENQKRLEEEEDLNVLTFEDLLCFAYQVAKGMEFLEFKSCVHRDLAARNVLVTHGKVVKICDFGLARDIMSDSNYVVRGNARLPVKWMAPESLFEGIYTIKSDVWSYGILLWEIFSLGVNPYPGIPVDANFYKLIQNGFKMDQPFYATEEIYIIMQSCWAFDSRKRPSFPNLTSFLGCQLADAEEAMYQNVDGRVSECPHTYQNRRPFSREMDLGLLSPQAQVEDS
Protocol: as §1, §2

KDR(h) = molecular target: T10, KDR(h) (Homo sapiens, UniProt P35968); test: kinase profile, radiometric assay, KDR; type: biochemical
T10 construct: purchased Eurofins, Dundee, Scotland
T10 sequence (P35968 20-1356): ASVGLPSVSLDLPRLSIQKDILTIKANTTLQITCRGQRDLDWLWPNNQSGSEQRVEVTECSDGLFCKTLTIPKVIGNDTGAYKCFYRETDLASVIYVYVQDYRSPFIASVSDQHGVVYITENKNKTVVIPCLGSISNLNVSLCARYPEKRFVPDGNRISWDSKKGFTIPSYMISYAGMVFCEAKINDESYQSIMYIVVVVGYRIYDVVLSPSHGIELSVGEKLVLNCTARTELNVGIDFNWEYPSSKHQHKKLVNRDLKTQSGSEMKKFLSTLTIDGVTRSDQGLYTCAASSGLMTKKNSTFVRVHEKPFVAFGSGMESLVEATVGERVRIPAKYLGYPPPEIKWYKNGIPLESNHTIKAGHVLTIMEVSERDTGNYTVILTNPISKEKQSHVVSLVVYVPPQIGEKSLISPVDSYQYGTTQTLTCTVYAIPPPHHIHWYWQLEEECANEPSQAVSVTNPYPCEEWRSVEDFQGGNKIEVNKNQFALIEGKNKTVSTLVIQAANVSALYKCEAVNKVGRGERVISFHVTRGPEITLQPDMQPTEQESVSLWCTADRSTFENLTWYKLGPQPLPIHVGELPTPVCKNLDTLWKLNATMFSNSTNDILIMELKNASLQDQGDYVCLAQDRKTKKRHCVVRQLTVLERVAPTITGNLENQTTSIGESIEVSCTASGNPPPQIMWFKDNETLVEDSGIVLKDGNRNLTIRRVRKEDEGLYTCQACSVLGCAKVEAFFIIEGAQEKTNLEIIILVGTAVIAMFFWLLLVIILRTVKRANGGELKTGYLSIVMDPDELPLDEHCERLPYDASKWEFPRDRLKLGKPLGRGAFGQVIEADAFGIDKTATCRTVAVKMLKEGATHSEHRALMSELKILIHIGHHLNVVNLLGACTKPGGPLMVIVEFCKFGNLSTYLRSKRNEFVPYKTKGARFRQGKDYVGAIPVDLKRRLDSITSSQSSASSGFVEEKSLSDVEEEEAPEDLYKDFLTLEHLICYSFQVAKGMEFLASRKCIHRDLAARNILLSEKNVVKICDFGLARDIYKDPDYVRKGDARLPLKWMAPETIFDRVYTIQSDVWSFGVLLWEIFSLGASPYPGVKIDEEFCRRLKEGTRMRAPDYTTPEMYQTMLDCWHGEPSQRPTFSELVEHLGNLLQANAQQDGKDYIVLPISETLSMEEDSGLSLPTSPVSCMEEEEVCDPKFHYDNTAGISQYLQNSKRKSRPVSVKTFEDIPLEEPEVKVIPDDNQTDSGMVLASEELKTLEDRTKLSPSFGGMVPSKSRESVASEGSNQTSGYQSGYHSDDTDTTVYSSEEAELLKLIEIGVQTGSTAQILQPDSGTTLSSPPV
Protocol: as §1, §2

[2] = first of three lines printed with this name (r24)
[3] = second of three lines with this name
[4] = third of three lines printed with this name (r26)

T1 sequence (Q02750 whole entry): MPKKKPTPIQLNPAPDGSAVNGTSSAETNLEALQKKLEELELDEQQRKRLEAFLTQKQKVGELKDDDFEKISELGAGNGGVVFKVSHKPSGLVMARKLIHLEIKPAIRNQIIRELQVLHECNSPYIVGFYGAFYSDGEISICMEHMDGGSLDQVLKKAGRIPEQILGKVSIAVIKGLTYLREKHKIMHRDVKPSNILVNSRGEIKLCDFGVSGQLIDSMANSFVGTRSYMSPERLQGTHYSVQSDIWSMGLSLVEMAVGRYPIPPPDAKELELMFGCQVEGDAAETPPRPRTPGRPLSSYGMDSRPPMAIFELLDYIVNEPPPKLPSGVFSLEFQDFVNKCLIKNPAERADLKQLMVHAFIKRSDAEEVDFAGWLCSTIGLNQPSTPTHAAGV

Compound	% Inhibition PI3 Kinase (p110β/p85α)(h) [1, 2]	% Inhibition PI3 Kinase (p110β/p85α)(h) [1, 3]	% Inhibition PI3 Kinase (p110β/p85α)(h) [1, 4]	inhibition at 1 µM (MEK1(h))	inhibition at 1 µM (Src(1-530)(h))	inhibition at 1 µM (JAK2(h))	IC50 (CLK4(h))	inhibition at 1 µM (IKKβ(h))	inhibition at 1 µM (JNK2α2(h))	inhibition at 1 µM (ALK(h))	inhibition at 1 µM (EGFR(h))	inhibition at 1 µM (Flt3(h))	inhibition at 1 µM (KDR(h))
CC(C)n1cnc2c(Nc3cccc(Cl)c3)nc(N[C@@H]3CCCC[C@@H]3N)nc21 [Compound 9, N^2-((1R,2S)-2-Aminocyclohexyl)-N^6-(3-Chlorophenyl)-9-Isopropyl-9H-Purine-2,6-Diamine]	4%	3%	5%	8%	69%	2%	50 nM	-5%	4%	-2%	3%	90%	-6%
CC(C)n1cnc2c(Nc3cc(N)cc(Cl)c3)nc(NC3CCCCC3N)nc21 (racemic) [Compound 14, Racemic N^6-Cis-(3-Amino-5-Chlorophenyl)-N^2-(2-Aminocyclohexyl)-9-Isopropyl-9H-Purine-2,6-Diamine]	4%	0%	1%	6%	78%	8%	54 nM	-9%	-6%	10%	-1%	93%	4%
CC(C)n1cnc2c(Nc3cccc(Cl)c3)nc(N[C@H]3CCCC[C@@H]3N)nc21 [Compound 8, N^2-((1S,2S)-2-Aminocyclohexyl)-V-(3-Chlorophenyl)-9-Isopropyl-9H-Purine-2,6-Diamine]	5%	2%	2%	10%	22%	-6%	86 nM	-2%	1%	7%	-6%	19%	16%

Reference: patent publication US10722515B2, “Dual CLK/CDK1 inhibitors for cancer treatment” (SRI INTERNATIONAL, priority 2016, dated 2020)
